#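 Tested at 5 concentrations; 48 h exposure; 96-well plates; endpoints linearly interpolated, else capped at highest concentration. GI50 = concentration required for 50% inhibition of growth.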 Calls of active or inactive are those of the source. No stated cut-off is given here; in the data, active = GI50 up to about 1.1 µM and inactive = higher.
# Tests used:
# Assay in all cases: inhibition of tumour cell growth, NCI panel, 48 h
# EKVX = tested on: EKVX
# HOP-62 = tested on: HOP-62
# KM12 = tested on: KM12
# T47D = tested on: T47D
# U-251 = tested on: U-251
# SN12C = tested on: SN12C
# MDA-MB-435 = tested on: MDA-MB-435
# A498 = tested on: A498
# UACC-62 = tested on: UACC-62
# OVCAR-8 = tested on: OVCAR-8
# MOLT-4 = tested on: MOLT-4
# HCT-15 = tested on: HCT-15
# DU-145 = tested on: DU-145
# Hs-578T = tested on: Hs-578T
# OVCAR-5 = tested on: OVCAR-5
# SNB-19 = tested on: SNB-19
# PC-3 = tested on: PC-3
# HOP-92 = tested on: HOP-92
# TK-10 = tested on: TK-10
# A549 = tested on: A549
# NCI/ADR-RES = tested on: NCI/ADR-RES
# IGROV-1 = tested on: IGROV-1
# SF-539 = tested on: SF-539
# MDA-N = tested on: MDA-N
# SK-OV-3 = tested on: SK-OV-3
# MDA-MB-231 = tested on: MDA-MB-231
# NCI-H522 = tested on: NCI-H522
# NCI-H226 = tested on: NCI-H226
# HT-29 = tested on: HT-29
# OVCAR-3 = tested on: OVCAR-3
# UACC-257 = tested on: UACC-257
# HCT-116 = tested on: HCT-116
# ACHN = tested on: ACHN
# COLO 205 = tested on: COLO 205
# M14 = tested on: M14
# UO-31 = tested on: UO-31
# SW-620 = tested on: SW-620
# HL-60 = tested on: HL-60
# SR = tested on: SR
# LOX IMVI = tested on: LOX IMVI
# SK-MEL-5 = tested on: SK-MEL-5
# 786-0 = tested on: 786-0
# CAKI-1 = tested on: CAKI-1
# SF-268 = tested on: SF-268
# SK-MEL-2 = tested on: SK-MEL-2
# MCF7 = tested on: MCF7
# RXF 393 = tested on: RXF 393
# NCI-H23 = tested on: NCI-H23
# BT-549 = tested on: BT-549
# SK-MEL-28 = tested on: SK-MEL-28
# SF-295 = tested on: SF-295
# SNB-75 = tested on: SNB-75
# RPMI-8226 = tested on: RPMI-8226
# NCI-H460 = tested on: NCI-H460
# OVCAR-4 = tested on: OVCAR-4
# Malme-3M = tested on: Malme-3M
# K562 = tested on: K562
# CCRF-CEM = tested on: CCRF-CEM
compound,measurement,setting,value
COc1ccc(C(=O)O[C@@H]2CCN3CC[C@H](C)[C@H]23)cc1,GI50,EKVX,> 100 µM (inactive)
same,GI50,HOP-62,> 100 µM (inactive)
same,GI50,KM12,> 100 µM (inactive)
same,GI50,T47D,> 100 µM (inactive)
same,GI50,U-251,> 100 µM (inactive)
same,GI50,SN12C,> 100 µM (inactive)
same,GI50,MDA-MB-435,> 100 µM (inactive)
same,GI50,A498,> 100 µM (inactive)
same,GI50,UACC-62,> 100 µM (inactive)
same,GI50,OVCAR-8,> 100 µM (inactive)
same,GI50,MOLT-4,> 100 µM (inactive)
same,GI50,HCT-15,> 100 µM
same,GI50,DU-145,> 100 µM (inactive)
same,GI50,Hs-578T,> 100 µM (inactive)
same,GI50,OVCAR-5,> 100 µM (inactive)
same,GI50,SNB-19,> 100 µM (inactive)
same,GI50,PC-3,> 100 µM (inactive)
same,GI50,HOP-92,> 100 µM (inactive)
same,GI50,TK-10,> 100 µM (inactive)
same,GI50,A549,> 100 µM (inactive)
same,GI50,NCI/ADR-RES,> 100 µM (inactive)
same,GI50,IGROV-1,> 100 µM (inactive)
same,GI50,SF-539,> 100 µM (inactive)
same,GI50,MDA-N,> 100 µM (inactive)
same,GI50,SK-OV-3,> 100 µM (inactive)
same,GI50,MDA-MB-231,> 100 µM (inactive)
same,GI50,NCI-H522,> 100 µM (inactive)
same,GI50,NCI-H226,> 100 µM (inactive)
same,GI50,HT-29,> 100 µM (inactive)
same,GI50,OVCAR-3,> 100 µM (inactive)
same,GI50,UACC-257,> 100 µM (inactive)
same,GI50,HCT-116,> 100 µM (inactive)
same,GI50,ACHN,> 100 µM (inactive)
same,GI50,COLO 205,> 100 µM (inactive)
same,GI50,M14,> 100 µM (inactive)
same,GI50,UO-31,58.1 µM (inactive)
same,GI50,SW-620,> 100 µM (inactive)
same,GI50,HL-60,> 100 µM (inactive)
same,GI50,SR,> 100 µM (inactive)
same,GI50,LOX IMVI,> 100 µM (inactive)
same,GI50,SK-MEL-5,> 100 µM (inactive)
same,GI50,786-0,> 100 µM (inactive)
same,GI50,CAKI-1,> 100 µM (inactive)
same,GI50,SF-268,> 100 µM (inactive)
same,GI50,SK-MEL-2,> 100 µM (inactive)
same,GI50,MCF7,> 100 µM (inactive)
same,GI50,RXF 393,45.9 µM (inactive)
same,GI50,NCI-H23,> 100 µM (inactive)
same,GI50,BT-549,> 100 µM (inactive)
same,GI50,SK-MEL-28,> 100 µM (inactive)
same,GI50,SF-295,> 100 µM (inactive)
same,GI50,SNB-75,> 100 µM (inactive)
same,GI50,RPMI-8226,> 100 µM (inactive)
same,GI50,NCI-H460,> 100 µM (inactive)
c1ccc(C(CCN2CC3CCC(CC3)C2)c2ccccc2)cc1,GI50,EKVX,37.8 µM (inactive)
same,GI50,HOP-62,27.5 µM (inactive)
same,GI50,KM12,23.9 µM (inactive)
same,GI50,T47D,20 µM (inactive)
same,GI50,U-251,18.2 µM (inactive)
same,GI50,SN12C,26.4 µM (inactive)
same,GI50,MDA-MB-435,25.1 µM (inactive)
same,GI50,A498,15.6 µM (inactive)
same,GI50,UACC-62,17.1 µM (inactive)
same,GI50,OVCAR-8,28.6 µM (inactive)
same,GI50,MOLT-4,18.2 µM (inactive)
same,GI50,HCT-15,21.8 µM
same,GI50,DU-145,38.4 µM (inactive)
same,GI50,Hs-578T,24 µM (inactive)
same,GI50,OVCAR-5,20.1 µM (inactive)
same,GI50,SNB-19,34.4 µM (inactive)
same,GI50,PC-3,31.5 µM (inactive)
same,GI50,HOP-92,22.9 µM (inactive)
same,GI50,TK-10,23.1 µM (inactive)
same,GI50,A549,31.2 µM (inactive)
same,GI50,NCI/ADR-RES,23.8 µM (inactive)
same,GI50,IGROV-1,31 µM (inactive)
same,GI50,SF-539,16 µM (inactive)
same,GI50,MDA-N,23 µM (inactive)
same,GI50,MDA-MB-231,18.9 µM (inactive)
same,GI50,NCI-H522,16.6 µM (inactive)
same,GI50,NCI-H226,19.6 µM (inactive)
same,GI50,HT-29,13.9 µM (inactive)
same,GI50,OVCAR-3,20.2 µM (inactive)
same,GI50,UACC-257,16.2 µM (inactive)
same,GI50,HCT-116,20.1 µM (inactive)
same,GI50,ACHN,22.8 µM (inactive)
same,GI50,COLO 205,12.6 µM (inactive)
same,GI50,M14,14.3 µM (inactive)
same,GI50,UO-31,14.9 µM (inactive)
same,GI50,OVCAR-4,38.7 µM (inactive)
same,GI50,SW-620,29.9 µM (inactive)
same,GI50,Malme-3M,16.3 µM (inactive)
same,GI50,SR,19.7 µM (inactive)
same,GI50,LOX IMVI,16.9 µM (inactive)
same,GI50,K562,18.4 µM (inactive)
same,GI50,SK-MEL-5,16.5 µM (inactive)
same,GI50,786-0,17.3 µM (inactive)
same,GI50,CAKI-1,37.9 µM (inactive)
same,GI50,SF-268,25.6 µM (inactive)
same,GI50,SK-MEL-2,20.5 µM (inactive)
same,GI50,MCF7,15.6 µM (inactive)
same,GI50,RXF 393,18.8 µM (inactive)
same,GI50,NCI-H23,18 µM (inactive)
same,GI50,BT-549,42.2 µM (inactive)
same,GI50,SK-MEL-28,41.1 µM (inactive)
same,GI50,SF-295,26 µM (inactive)
same,GI50,SNB-75,24.2 µM (inactive)
same,GI50,RPMI-8226,16.8 µM (inactive)
same,GI50,NCI-H460,15 µM (inactive)
COc1ccc(N(CC(=O)O)N=O)cc1,GI50,EKVX,> 100 µM (inactive)
same,GI50,HOP-62,> 100 µM (inactive)
same,GI50,KM12,> 100 µM (inactive)
same,GI50,T47D,> 100 µM (inactive)
same,GI50,U-251,> 100 µM (inactive)
same,GI50,CCRF-CEM,> 100 µM (inactive)
same,GI50,SN12C,> 100 µM (inactive)
same,GI50,MDA-MB-435,> 100 µM (inactive)
same,GI50,A498,> 100 µM (inactive)
same,GI50,UACC-62,> 100 µM (inactive)
same,GI50,OVCAR-8,> 100 µM (inactive)
same,GI50,MOLT-4,> 100 µM (inactive)
same,GI50,HCT-15,> 100 µM
same,GI50,DU-145,> 100 µM (inactive)
same,GI50,Hs-578T,> 100 µM (inactive)
same,GI50,OVCAR-5,> 100 µM (inactive)
same,GI50,SNB-19,> 100 µM (inactive)
same,GI50,PC-3,> 100 µM (inactive)
same,GI50,HOP-92,> 100 µM (inactive)
same,GI50,TK-10,> 100 µM (inactive)
same,GI50,A549,> 100 µM (inactive)
same,GI50,NCI/ADR-RES,> 100 µM (inactive)
same,GI50,IGROV-1,> 100 µM (inactive)
same,GI50,SF-539,> 100 µM (inactive)
same,GI50,MDA-N,> 100 µM (inactive)
same,GI50,SK-OV-3,> 100 µM (inactive)
same,GI50,MDA-MB-231,> 100 µM (inactive)
same,GI50,NCI-H522,> 100 µM (inactive)
same,GI50,NCI-H226,> 100 µM (inactive)
same,GI50,HT-29,> 100 µM (inactive)
same,GI50,OVCAR-3,> 100 µM (inactive)
same,GI50,UACC-257,> 100 µM (inactive)
same,GI50,HCT-116,> 100 µM (inactive)
same,GI50,ACHN,> 100 µM (inactive)
same,GI50,COLO 205,> 100 µM (inactive)
same,GI50,M14,> 100 µM (inactive)
same,GI50,UO-31,> 100 µM (inactive)
same,GI50,OVCAR-4,> 100 µM (inactive)
same,GI50,SW-620,> 100 µM (inactive)
same,GI50,Malme-3M,> 100 µM (inactive)
same,GI50,HL-60,> 100 µM (inactive)
same,GI50,SR,> 100 µM (inactive)
same,GI50,LOX IMVI,> 100 µM (inactive)
same,GI50,K562,> 100 µM (inactive)
same,GI50,SK-MEL-5,> 100 µM (inactive)
same,GI50,786-0,> 100 µM (inactive)
same,GI50,CAKI-1,> 100 µM (inactive)
same,GI50,SF-268,> 100 µM (inactive)
same,GI50,SK-MEL-2,> 100 µM (inactive)
same,GI50,MCF7,> 100 µM (inactive)
same,GI50,RXF 393,> 100 µM (inactive)
same,GI50,NCI-H23,> 100 µM (inactive)
same,GI50,BT-549,> 100 µM (inactive)
same,GI50,SK-MEL-28,> 100 µM (inactive)
same,GI50,SF-295,> 100 µM (inactive)
same,GI50,RPMI-8226,> 100 µM (inactive)
same,GI50,NCI-H460,> 100 µM (inactive)

# Source: ChEMBL document CHEMBL1201862, “PubChem BioAssay data set” (2004)
